# Measurements: patent publication US20240279236A1, “COMPOUNDS AND METHODS OF TREATING TUBERCULOSIS” (Fimbrion Therapeutics, Inc., priority 2021, published 2024)
# System: WT Mtb Erdman strain
# Experiment: Microplate Alamar Blue Assay (MABA), Mtb growth inhibition
# Assay type: cell-based, Mycobacterium tuberculosis
# Settings: Mycobacterium tuberculosis, ERDMAN, 168 h, Middlebrook 7H9 media, 7 days at 37° C. in 5% CO2
row,Structure (SMILES),IC50 [nM]
1,"Cc1cc2c(NCCCc3ccc(-c4ccc(C(F)(F)F)cn4)cc3)nc(-c3cc[nH]c3)nc2s1 [Example 570, 6-methyl-2-(1H-pyrrol-3-yl)-N-(3-(4-(5-(trifluoromethyl)pyridin-2-yl)phenyl)propyl)thieno[2,3-d]pyrimidin-4-amine]",230
2,"FC(F)(F)Oc1ccc(-c2ccc(CCCNc3nc(-c4ccc[nH]4)nc4sccc34)cc2)cc1 [Example 574, 2-(1H-pyrrol-2-yl)-N-(3-(4′-(trifluoromethoxy)-[1,1′-biphenyl]-4-yl)propyl)thieno[2,3-d]pyrimidin-4-amine]",> 520
3,"Cc1cc2c(NCCCc3ccc(-c4cnc(N5CCCC5)cn4)cc3)nc(N3CCCC3)nc2s1 [Example 575, 6-methyl-2-(pyrrolidin-1-yl)-N-(3-(4-(5-(pyrrolidin-1-yl)pyrazin-2-yl)phenyl)propyl)thieno[2,3-d]pyrimidin-4-amine]",91
4,"CCc1nc(NC(=O)CCCc2ccccc2)c2cc(C)sc2n1 [Example 576, N-(2-ethyl-6-methylthieno[2,3-d]pyrimidin-4-yl)-4-phenylbutanamide]",3400
5,"Cc1cc2c(NC(=O)CCc3ccccc3)nc(-c3ccoc3)nc2s1 [Example 577, N-(2-(furan-3-yl)-6-methylthieno[2,3-d]pyrimidin-4-yl)-3-phenylpropanamide]",71
6,"Cc1cc2c(NCCCc3ccccc3)nc(S(C)(=O)=O)nc2s1 [Example 578, 6-methyl-2-(methylsulfonyl)-N-(3-phenylpropyl)thieno[2,3-d]pyrimidin-4-amine]",4000
7,"Cc1cc2c(NCCCc3ccccc3)nc(C(=O)O)nc2s1 [Example 579, 6-methyl-4-((3-phenylpropyl)amino)thieno[2,3-d]pyrimidine-2-carboxylic acid]",> 10000
8,"Cc1cc2c(NCCCc3ccccc3)nc(OC(F)F)nc2s1 [Example 580, 2-(difluoromethoxy)-6-methyl-N-(3-phenylpropyl)thieno[2,3-d]pyrimidin-4-amine]",> 10000
9,"Cc1cc2c(NCCCc3ccccc3)nc([S+](C)[O-])nc2s1 (centres unmarked) [Example 581, 6-methyl-2-(methylsulfinyl)-N-(3-phenylpropyl)thieno[2,3-d]pyrimidin-4-amine]",1300
10,"C=C(C)c1nc(NCCCc2ccccc2)c2cc(C)sc2n1 [Example 582, 6-methyl-N-(3-phenylpropyl)-2-(prop-1-en-2-yl)thieno[2,3-d]pyrimidin-4-amine]",170
11,"Cc1nc(NCCCc2ccccc2)c2nc(Cl)sc2n1 [Example 583, 2-chloro-5-methyl-N-(3-phenylpropyl)thiazolo[5,4-d]pyrimidin-7-amine]",5800
12,"Cc1nc(NCCCc2ccccc2)c2ncsc2n1 [Example 584, 5-methyl-N-(3-phenylpropyl)thiazolo[5,4-d]pyrimidin-7-amine]",> 10000
13,"Cc1cc2c(NCCCc3ccccc3)nc(-n3ccnn3)nc2s1 [Example 586, 6-methyl-N-(3-phenylpropyl)-2-(1H-1,2,3-triazol-1-yl)thieno[2,3-d]pyrimidin-4-amine]",200
14,"Cc1cc2c(NCCCc3ccc(OC(F)(F)F)cc3)nc(-n3ccnn3)nc2s1 [Example 587, 6-methyl-2-(1H-1,2,3-triazol-1-yl)-N-(3-(4-(trifluoromethoxy)phenyl)propyl)thieno[2,3-d]pyrimidin-4-amine]",1100
15,"CCc1nc(NCCCc2ccccc2O)c2cc(C)sc2n1 [Example 588, 2-(3-((2-ethyl-6-methylthieno[2,3-d]pyrimidin-4-yl)amino)propyl)phenol]",4400
16,"Cc1cc2c(NCCCc3ccccc3O)nc(C(F)(F)F)nc2s1 [Example 589, 2-(3-((6-methyl-2-(trifluoromethyl)thieno[2,3-d]pyrimidin-4-yl)amino)propyl)phenol]",> 10000
17,"CCc1nc(NCCCc2ccc(Nc3ccccc3)cc2)c2cc(C)sc2n1 [Example 590, 2-ethyl-6-methyl-N-(3-(4-(phenylamino)phenyl)propyl)thieno[2,3-d]pyrimidin-4-amine]",530
18,"CCc1nc(NCCCc2ccc(N=[N+]=[N-])cc2)c2cc(C)sc2n1 [Example 591, N-(3-(4-azidophenyl)propyl)-2-ethyl-6-methylthieno[2,3-d]pyrimidin-4-amine]",> 10000
19,"Cc1cc2c(NCCCc3ccc(N=[N+]=[N-])cc3)nc(C(F)(F)F)nc2s1 [Example 592, N-(3-(4-azidophenyl)propyl)-6-methyl-2-(trifluoromethyl)thieno[2,3-d]pyrimidin-4-amine]",4400
20,"CCc1nc(NCCCc2ccc(-n3ccnn3)cc2)c2cc(C)sc2n1 [Example 593, N-(3-(4-(1H-1,2,3-triazol-1-yl)phenyl)propyl)-2-ethyl-6-methylthieno[2,3-d]pyrimidin-4-amine]",530
21,"Cc1cc2c(NCCCc3ccc(-c4ccc[nH]4)cc3)nc(-c3ccoc3)nc2s1 [Example 594, 2-(furan-3-yl)-6-methyl-N-(3-[4-(1H-pyrrol-2-yl)phenyl]propyl)thieno[2,3-d]pyrimidin-4-amine]",240
22,"Cc1cc2c(NCCCc3ccc(-c4ccc(OC(F)(F)F)cc4)cc3)nc(OCC(F)(F)F)nc2s1 [Example 596, 6-methyl-2-(2,2,2-trifluoroethoxy)-N-(3-(4′-(trifluoromethoxy)-[1,1′-biphenyl]-4-yl)propyl)thieno[2,3-d]pyrimidin-4-amine]",29
23,"Cc1cc2c(NCCCc3ccc(-c4ccc(OC(F)(F)F)cc4)cc3)nc(SC(F)(F)F)nc2s1 [Example 597, 6-methyl-N-(3-(4′-(trifluoromethoxy)-[1,1′-biphenyl]-4-yl)propyl)-2-((trifluoromethyl)thio)thieno[2,3-d]pyrimidin-4-amine]",6300
24,"Cc1cc2c(NCCCc3ccc(-c4ccc(OC(F)(F)F)cc4)cc3)nc(Br)nc2s1 [Example 598, 2-bromo-6-methyl-N-(3-(4′-(trifluoromethoxy)-[1,1′-biphenyl]-4-yl)propyl)thieno[2,3-d]pyrimidin-4-amine]",81
25,"CC(=O)Nc1nc(NCCCc2ccc(-c3ccc(OC(F)(F)F)cc3)cc2)c2cc(C)sc2n1 [Example 599, N-(6-methyl-4-((3-(4′-(trifluoromethoxy)-[1,1′-biphenyl]-4-yl)propyl)amino)thieno[2,3-d]pyrimidin-2-yl)acetamide]",> 370
26,"Cc1cc2c(NCCCc3ccc(-c4ccc(C(=O)O)cc4)cc3)nc(-c3ccoc3)nc2s1 [Example 601, 4′-(3-((2-(furan-3-yl)-6-methylthieno[2,3-d]pyrimidin-4-yl)amino)propyl)-[1,1′-biphenyl]-4-carboxylic acid]",530
27,"Cc1cc2c(NCCCc3ccc(-c4ccc(OC(F)(F)F)cc4)cc3)nc(-n3ccnn3)nc2s1 [Example 602, 6-methyl-2-(1H-1,2,3-triazol-1-yl)-N-(3-(4′-(trifluoromethoxy)-[1,1′-biphenyl]-4-yl)propyl)thieno[2,3-d]pyrimidin-4-amine]",190
28,"Cc1cc2c(NCCCc3ccc(-n4cccc4)cc3)nc(-c3ccoc3)nc2s1 [Example 604, 2-(furan-3-yl)-6-methyl-N-(3-[4-(1H-pyrrol-1-yl)phenyl]propyl)thieno[2,3-d]pyrimidin-4-amine]",28
29,"Cc1cc2c(NCCCc3ccc(-c4ccc(OC(F)(F)F)cc4)cc3)nc(C#N)nc2s1 [Example 605, 6-methyl-4-((3-[4′-(trifluoromethoxy)-[1,1′-biphenyl]-4-yl]propyl)amino)thieno[2,3-d]pyrimidine-2-carbonitrile]",> 10000
